According to patent US7951232B2, “Surface coating compositions and methods” (Elevance Renewable Sciences, Inc., priority 2006, dated 2011):

Columns and labels:
Type in all cases: cell-based
[1] = test system: Escherichia coli, ATCC 11229; assay: Time-Kill Procedure (ASTM) at pH 7
Description: The rate of kill for these organisms upon exposure to 9-decenoic acid was determined using the American Society for Testing and Materials (ASTM) procedure entitled “Standard Test Method for the Assessment of Microbiocidal Activity of Test Materials Using a Time-Kill Procedure”, October 1998. This procedure incorporates the recommendations described in the “Manual of Clinical Microbiology,”5th ed., edited by A. B. Balows et al., ASM, Washington, and is directed by the Federal Register, June 1994.
Stock cultures were transferred into TSB and incubated for 18-24 hours at 37±2° C. A second transfer was made onto TSA plates and were incubated for 18-24 hours at 37±2° C. The plates were removed from incubation and the bacterial growth washed from the agar surface using Butterfield's Phosphate Buffered Dilution Water (PBDW). The bacterial suspension was adjusted to contain approximately 10^8 Colony Forming Units (CFU)/ml with PBDW using spectrophometric methods extant in the laboratory.
The concentrated 9-decenoic acid was diluted 1:40 in filter sterilized isopropanol to yield a 2.5% stock solution. Subsequent dilutions to the 9-decenoic acid stock solutions were made with sterile Deionized Water (DI) to achieve concentrations of 0.1%, 0.05%, 0.01%, and 0.001%. The pH was determined for each dilution; pH values ranged from 4.4-4.1. Additionally, the 9-decenoic acid stock solution was adjusted to pH 7 with 1 N NaOH and serially diluted with sterile DI to achieve concentrations of 1.0%, 0.75% and 0.5%.
Compliant with the ASTM procedure cited, for each challenge microorganism a 9.9 ml aliquot of the prepared 9-decenoic acid suspension was added to a sterile tube. A 0.1 ml aliquot of the standardized inoculum was added to the 9-decenoic acid solution representing the start of the test exposure. The inoculated 9-decenoic acid solution was immediately mixed thoroughly. The inoculated suspension was held at room temperature for 0.5, 2, 5, 7 and 10 minute exposure times for tests run at ˜pH 4. The pH 7 tests were held at room temperature for 0.5 and 2 minutes.
At each exposure sample time, a 1.0 ml aliquot of the inoculated 9-decenoic acid suspension was transferred to 9.0 ml of D/E Neutralizing Broth. Additional ten-fold serial dilutions were made in PBDW and plated in duplicate on TSA. All plates were incubated for 48 hours at 37±2° C. and visually examined for growth. The plates are enumerated, recorded and log kill determined for each time point.
The following study controls were conducted: culture purity, neutralizer sterility, initial suspension population, test population, neutralization verification and a negative control using isopropanol. Culture purity was verified by performing a streak plate for isolated colonies on the each culture used. All cultures were determined to be pure based on consistent colony morphology typical for the test organism. The neutralizer sterility was confirmed by no growth in an incubated sample.
The population of the initial and test culture were determined by serial dilution, plating and enumerating after incubation. The initial suspension were determined to be ≧10^4 CFU/ml. The test culture population was used for calculation of the log reduction achieved at each time point.
Neutralization effectiveness was verified by a filtration test. For each organism, four tubes were prepared with 9 ml D/E Neutralizing Broth and fewer than 100 CFU/ml of the organism. A 1.0 ml aliquot of prepared 9-decenoic acid was added to each tube. Immediately, the entire contents of 2 tubes were filtered through a filtration apparatus and rinsed with sterile diluent. The remaining 2 tubes were held at room temperature for 30 minutes and then the entire contents were filtered using the same procedure. The filters were aseptically transferred to TSA plates and incubated for 48 hours at 37±2° C. and visually examined for growth.
This control was inoculated, subcultured and incubated as in the test procedure.

[2] = test system: Trichoderma virens ATCC 9645; assay: Dry film preservative test, growth on PDA agar surface
Description: (§1) The efficacy of 9-decenoic acid and the methyl ester of 9-decenoic acid as a dry film preservative was determined through the incubation of Trichoderma virens ATCC 9645, Cladosporium cladosporiodes ATCC 16022 and Aureobasidium pullulans ATCC 12536 in the presence of varying concentrations of 9-decenoic acid or the methyl ester of 9-decenoic acid on an agar surface.
(§2) Fungal spores were hydrated overnight in 0.1% Tween 80 and then plated on Potato Dextrose Agar (PDA) and incubated at 25-30° C. for 6 days. The spores were washed from the surface with 5 mls of 0.1% Tween 80 and enumerated.
(§3) PDA plates with prepared according to the manufactures instructions through sterilization. The agar was tempered to approximately 50° C. and filter sterilized 9-decenoic acid was added to achieve concentrations of 0.1, 0.5 and 1.0% in the agar. Additionally, one concentration of the methyl ester of 9-decenoic acid (0.5%) was also prepared. The agar was thoroughly mixed and poured into sterile petri plates and allowed to solidify.
(§4) The agar plates were inoculated with the spore solution to achieve 10^2 spores/plate. The plates were incubated at 25-30° C. in Ziploc bags with a wet paper towel to keep the moisture level high. The plates were examined for growth after 4, 7, 16, 24 and 31 days. The percent coverage of growth on the agar surface was recorded at each sample point.

[3] = test system: Aureobasidium pullulans ATCC 12536; assay: as above
Description: as §1, §2, §3, §4

[4] = test system: Cladosporium cladosporiodes ATCC 16022; assay: as above
Description: as §1, §2, §3, §4

C=CCCCCCCCC(=O)O [9-decenoic acid]
Log reduction after exposure at pH 7 ([1]; 0.5%, pH 7, exposure 0.5 minutes): 0 log
Log reduction after exposure at pH 7 ([1]; 0.5%, pH 7, exposure 2 minutes): 0 log
Log reduction after exposure at pH 7 ([1]; 0.75%, pH 7, exposure 0.5 minutes): 0.83 log
Log reduction after exposure at pH 7 ([1]; 0.75%, pH 7, exposure 2 minutes): >4.2 log
Log reduction after exposure at pH 7 ([1]; 1.0%, pH 7, exposure 0.5 minutes): >4.2 log
Log reduction after exposure at pH 7 ([1]; 1.0%, pH 7, exposure 2 minutes): >4.2 log
Percentage coverage of agar surface ([2]; 0.1% in PDA agar, 4 days): 0%
Percentage coverage of agar surface ([2]; 0.1% in PDA agar, 7 days): 0%
Percentage coverage of agar surface ([2]; 0.1% in PDA agar, 16 days): 0%
Percentage coverage of agar surface ([2]; 0.1% in PDA agar, 24 days): 0%
Percentage coverage of agar surface ([2]; 0.1% in PDA agar, 31 days): 0%
Percentage coverage of agar surface ([2]; 0.5% in PDA agar, 4 days): 0%
Percentage coverage of agar surface ([2]; 0.5% in PDA agar, 7 days): 0%
Percentage coverage of agar surface ([2]; 0.5% in PDA agar, 16 days): 0%
Percentage coverage of agar surface ([2]; 0.5% in PDA agar, 24 days): 0%
Percentage coverage of agar surface ([2]; 0.5% in PDA agar, 31 days): 0%
Percentage coverage of agar surface ([2]; 1.0% in PDA agar, 4 days): 0%
Percentage coverage of agar surface ([2]; 1.0% in PDA agar, 7 days): 0%
Percentage coverage of agar surface ([2]; 1.0% in PDA agar, 16 days): 0%
Percentage coverage of agar surface ([2]; 1.0% in PDA agar, 24 days): 0%
Percentage coverage of agar surface ([2]; 1.0% in PDA agar, 31 days): 0%
effectiveness as dry film preservative ([2]; at 0.1% for up to 31 days): effective
Percentage coverage of agar surface ([3]; 0.1% in PDA agar, 4 days): 0%
Percentage coverage of agar surface ([3]; 0.1% in PDA agar, 7 days): 0%
Percentage coverage of agar surface ([3]; 0.1% in PDA agar, 16 days): 0%
Percentage coverage of agar surface ([3]; 0.1% in PDA agar, 24 days): 0%
Percentage coverage of agar surface ([3]; 0.1% in PDA agar, 31 days): 0%
Percentage coverage of agar surface ([3]; 0.5% in PDA agar, 4 days): 0%
Percentage coverage of agar surface ([3]; 0.5% in PDA agar, 7 days): 0%
Percentage coverage of agar surface ([3]; 0.5% in PDA agar, 16 days): 0%
Percentage coverage of agar surface ([3]; 0.5% in PDA agar, 24 days): 0%
Percentage coverage of agar surface ([3]; 0.5% in PDA agar, 31 days): 0%
Percentage coverage of agar surface ([3]; 1.0% in PDA agar, 4 days): 0%
Percentage coverage of agar surface ([3]; 1.0% in PDA agar, 7 days): 0%
Percentage coverage of agar surface ([3]; 1.0% in PDA agar, 16 days): 0%
Percentage coverage of agar surface ([3]; 1.0% in PDA agar, 24 days): 0%
Percentage coverage of agar surface ([3]; 1.0% in PDA agar, 31 days): 0%
effectiveness as dry film preservative ([3]; at 0.1% for up to 31 days): effective
Percentage coverage of agar surface ([4]; 0.1% in PDA agar, 4 days): 0%
Percentage coverage of agar surface ([4]; 0.1% in PDA agar, 7 days): 0%
Percentage coverage of agar surface ([4]; 0.1% in PDA agar, 16 days): 0%
Percentage coverage of agar surface ([4]; 0.1% in PDA agar, 24 days): 0%
Percentage coverage of agar surface ([4]; 0.1% in PDA agar, 31 days): 0%
Percentage coverage of agar surface ([4]; 0.5% in PDA agar, 4 days): 0%
Percentage coverage of agar surface ([4]; 0.5% in PDA agar, 7 days): 0%
Percentage coverage of agar surface ([4]; 0.5% in PDA agar, 16 days): 0%
Percentage coverage of agar surface ([4]; 0.5% in PDA agar, 24 days): 0%
Percentage coverage of agar surface ([4]; 0.5% in PDA agar, 31 days): 0%
Percentage coverage of agar surface ([4]; 1.0% in PDA agar, 4 days): 0%
Percentage coverage of agar surface ([4]; 1.0% in PDA agar, 7 days): 0%
Percentage coverage of agar surface ([4]; 1.0% in PDA agar, 16 days): 0%
Percentage coverage of agar surface ([4]; 1.0% in PDA agar, 24 days): 0%
Percentage coverage of agar surface ([4]; 1.0% in PDA agar, 31 days): 0%
effectiveness as dry film preservative ([4]; at 0.1% for up to 31 days): effective
